Reference: publication PMC6196558, “The nitrilase PtNIT1 catabolizes herbivore-induced nitriles in Populus trichocarpa” (BMC Plant Biology, 2018)

T1: PtNIT1 (Populus trichocarpa, UniProt A0A2Z4EGE4)
T1 construct: tag cleavage not mentioned
T1 sequence (A0A2Z4EGE4 1-377): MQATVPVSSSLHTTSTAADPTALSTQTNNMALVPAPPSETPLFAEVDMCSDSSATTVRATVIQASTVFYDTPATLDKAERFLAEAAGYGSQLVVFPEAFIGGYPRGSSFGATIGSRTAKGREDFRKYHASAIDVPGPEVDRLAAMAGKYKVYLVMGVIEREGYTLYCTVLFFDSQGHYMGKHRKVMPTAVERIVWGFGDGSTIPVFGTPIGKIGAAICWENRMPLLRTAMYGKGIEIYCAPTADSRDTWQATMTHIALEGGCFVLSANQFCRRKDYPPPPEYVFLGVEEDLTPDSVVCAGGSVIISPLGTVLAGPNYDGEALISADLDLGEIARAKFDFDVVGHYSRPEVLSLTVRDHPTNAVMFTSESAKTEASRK


Tests used:
[1] = biological target: T1, PtNIT1; test: LC-MS/MS product formation; type: biochemical; details: potassium phosphate pH 7.2, 32 °C (standard assay)
[2] = substrate: N#CCc1c[nH]c2ccccc12; test: LC-MS/MS product formation; type: biochemical, Populus trichocarpa; details: potassium phosphate pH 7.2, 32 °C (standard assay)

Molecule | Km [1] [mM] | Km [2] [mM]
N#CCc1ccccc1 [benzyl cyanide] | 24.7 ± 1.8 | –
N#CC[C@H](N)C(=O)O [β-cyanoalanine] | 1.2 ± 0.1 | –
PtNIT1 (Populus trichocarpa) (protein, tag cleavage not mentioned) MQATVPVSSSLHTTSTAADPTALSTQTNNMALVPAPPSETPLFAEVDMCSDSSATTVRATVIQASTVFYDTPATLDKAERFLAEAAGYGSQLVVFPEAFIGGYPRGSSFGATIGSRTAKGREDFRKYHASAIDVPGPEVDRLAAMAGKYKVYLVMGVIEREGYTLYCTVLFFDSQGHYMGKHRKVMPTAVERIVWGFGDGSTIPVFGTPIGKIGAAICWENRMPLLRTAMYGKGIEIYCAPTADSRDTWQATMTHIALEGGCFVLSANQFCRRKDYPPPPEYVFLGVEEDLTPDSVVCAGGSVIISPLGTVLAGPNYDGEALISADLDLGEIARAKFDFDVVGHYSRPEVLSLTVRDHPTNAVMFTSESAKTEASRK | – | 10.0 ± 1.3
